Some test systems named below: UO-31 renal; UACC-62 melanoma; HOP-92 NSCLC; CCRF-CEM leukemia; KM12 colon; RXF 393 renal; NCI-H23 lung; UACC-257 melanoma; K-562 leukemia; HCT-116 colon; SNB-19 CNS; EKVX NSCLC; MDA-MB-435; SNB-75 CNS; HOP-62 NSCLC; OVCAR-8 ovarian; DU-145 prostate; TK-10 renal; SK-OV-3 ovarian; HT29 colon.
Common to all, as to assay: DTP human tumour cell line panel, 48 h

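The compound was tested at five concentrations on cells cultured in 96-well plates, with a 48-hour exposure period. TGI is the concentration that stops growth completely.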 Bounds are passed on as bounds.

As a reminder, the TGI is the concentration at which net growth stops. Higher therefore signals lower sensitivity of the cells.

As to `CCN1CCC(O)(c2ccc(O)cc2)C(C(=O)c2ccc(O)cc2)C1` (stereo not given), the TGI with UO-31 renal was 36 µM; in the assay on UACC-62 melanoma, 30.9 µM; with HOP-92 NSCLC, 37.5 µM; in the assay with CCRF-CEM leukemia it was 30 µM; in the assay on KM12 colon, 45.4 µM; in the assay with RXF 393 renal it was 30.7 µM. The TGI in the assay with NCI-H23 lung was 44.4 µM; with UACC-257 melanoma, 32.4 µM; in the assay on K-562 leukemia, 33.8 µM; in the assay with HCT-116 colon it was 54.9 µM; in the assay on SNB-19 CNS it was > 100 µM; with EKVX NSCLC, 51.1 µM. In addition, the TGI in the assay with MDA-MB-435 was 33.3 µM; with SNB-75 CNS it was 60.1 µM; in the assay with HOP-62 NSCLC, > 100 µM; with OVCAR-8 ovarian, > 100 µM; in the assay on DU-145 prostate, 60 µM; with TK-10 renal it was 31.5 µM. For the same compound, the TGI with SK-OV-3 ovarian was > 100 µM; in the assay with HT29 colon it was 64.9 µM.

The record behind these values is PubChem BioAssay (NCI).
